One assay deals with GSK3β (Homo sapiens, UniProt P49841). The assay is described as follows: GSK3β kinase assay (Caliper LabChip3000, fluoresceinated peptide substrate). Type of assay: biochemical. The gist of the method:
(§1)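 Eleven-point compound titrations (10 mM DMSO stocks) incubated with kinase and fluorescent peptide for 20 h at room temperature before EDTA quench. Substrate-to-product conversion measured by microfluidic mobility shift; IC50 from non-linear fitting.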

For a further assay, the system named is pTau. The assay is described as follows: pTau assay (method not described). Type of assay: cell-based.
The target of the next assay is GSK3α (Homo sapiens, UniProt P49840). In words: biochemical. The gist of the method:
as §1

The mark [1] stands for this setting: first value of the cell, 250 pM enzyme, 20 uM ATP, 20 hours at room temperature, read-out: GSK3β/α (nM): GSK3β IC50.
Setting [2] is: second value of the cell, 250 pM enzyme, 20 uM ATP, 20 hours at room temperature, read-out: GSK3β/α (nM): GSK3α IC50.

Where two headings read alike, the source gives them in different places. Where only a bound is given, the exact number is not on record here.

Sequence of GSK3β (P49841 whole entry, species assumed): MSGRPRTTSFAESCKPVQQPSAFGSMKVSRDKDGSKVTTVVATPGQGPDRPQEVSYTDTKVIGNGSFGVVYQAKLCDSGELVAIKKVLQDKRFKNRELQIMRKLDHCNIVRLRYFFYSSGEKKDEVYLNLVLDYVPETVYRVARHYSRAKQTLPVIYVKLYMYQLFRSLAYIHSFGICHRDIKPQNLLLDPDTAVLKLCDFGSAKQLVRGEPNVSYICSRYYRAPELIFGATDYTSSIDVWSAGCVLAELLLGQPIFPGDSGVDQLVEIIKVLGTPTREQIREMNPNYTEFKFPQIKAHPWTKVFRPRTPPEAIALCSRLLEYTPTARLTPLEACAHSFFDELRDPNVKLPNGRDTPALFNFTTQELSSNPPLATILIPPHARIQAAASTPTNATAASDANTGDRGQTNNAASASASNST
Sequence of GSK3α (P49840 whole entry, species assumed): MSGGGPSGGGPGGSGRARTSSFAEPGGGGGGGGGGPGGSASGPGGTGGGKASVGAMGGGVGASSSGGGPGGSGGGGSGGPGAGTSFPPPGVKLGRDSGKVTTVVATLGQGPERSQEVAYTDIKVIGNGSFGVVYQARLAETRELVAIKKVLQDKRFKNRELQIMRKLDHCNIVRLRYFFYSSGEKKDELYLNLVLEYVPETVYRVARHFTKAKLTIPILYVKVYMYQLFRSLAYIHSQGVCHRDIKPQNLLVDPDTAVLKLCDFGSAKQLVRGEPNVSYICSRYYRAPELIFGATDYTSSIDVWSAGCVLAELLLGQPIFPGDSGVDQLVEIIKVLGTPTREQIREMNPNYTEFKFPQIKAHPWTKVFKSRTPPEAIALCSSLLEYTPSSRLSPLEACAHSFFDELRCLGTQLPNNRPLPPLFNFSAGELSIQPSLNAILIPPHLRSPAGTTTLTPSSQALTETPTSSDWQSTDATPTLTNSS

Regarding `O=C(Nc1cnccc1-c1cc(Cl)ccc1F)c1ccnc(NC(=O)C2CC2)c1` [Example 86, 2-(Cyclopropanecarboxamido)-N-(4-(2-fluoro-5-chloro-phenyl)pyridin-3-yl)isonicotinamide], the values for the IC50 at GSK3β (setting [1]), in the assay with pTau (read-out: pTau) and at GSK3α (setting [2]) were 54 nM, 630 nM and 26 nM, respectively.

On to `CC(C)C(=O)Nc1cc(C(=O)Nc2cnccc2C(F)(F)c2ccccc2)ccn1` [Example 198, N-(4-(difluoro(phenyl)methyl)pyridin-3-yl)-2-isobutyramidoisonicotinamide], for which the IC50 was 390 nM on GSK3β (setting [1]), 9900 nM in the assay with pTau (read-out: pTau) and 230 nM at GSK3α (setting [2]).

In the case of `O=C(Nc1cnccc1N1CCCCCC1)c1ccnc(NC(=O)C2CC2)c1` [Example 53, N-(4-(azepan-1-yl)pyridin-3-yl)-2-(cyclopropanecarboxamido)isonicotinamide], the IC50 was determined as 37 nM on GSK3β (setting [1]), 1200 nM in the assay with pTau (read-out: pTau) and 14 nM on GSK3α (setting [2]).

With `CC(O)c1ccncc1NC(=O)c1ccnc(NC(=O)C2CC2)c1` (stereo not drawn) [Example 17, 2-(Cyclopropanecarboxamido)-N-(4-(1-hydroxyethyl)pyridin-3-yl)isonicotinamide], the results for the IC50 at GSK3β, with pTau (read-out: pTau) and at GSK3α (setting [2]) were 0.25 nM, 35 nM and 1.4 nM, respectively.

Turning to `CC1(C)CC(C(=O)Nc2cc(C(=O)Nc3cnccc3-c3ccccc3)ccn2)C1` [Example 217, 2-(3,3-Dimethylcyclobutanecarboxamido)-N-(4-phenylpyridin-3-yl)isonicotinamide], the results for the IC50 at GSK3β, in the assay with pTau (read-out: pTau) and at GSK3α (setting [2]) were 1.7 nM, 170 nM and 3.2 nM, respectively.

With `O=C(Nc1cncc(C2CC2)c1)c1ccnc(NC(=O)C2CC2)c1` [Example 22, 2-(Cyclopropanecarboxamido)-N-(5-cyclopropylpyridin-3-yl)isonicotinamide], the values for the IC50 on GSK3β (setting [1]), in the assay with pTau (read-out: pTau) and on GSK3α (setting [2]) were 7.1 nM, 250 nM and 2.4 nM, respectively.

As to `O=C(Nc1cnccc1C(=O)C(F)(F)F)c1ccnc(NC(=O)C2CC2)c1` [Example 24, 2-(Cyclopropanecarboxamido)-N-(4-(2,2,2-trifluoroacetyl)pyridin-3-yl)isonicotinamide], the IC50 was found to be 0.95 nM against GSK3β, 110 nM with pTau (read-out: pTau (nM)) and 1.2 nM at GSK3α.

As for `O=C(Nc1cncc(-c2cccc(Cl)c2)c1)c1ccnc(NC(=O)C2CC2)c1` [Example 155, N-(5-(3-chlorophenyl)pyridin-3-yl)-2-(cyclopropanecarboxamido)isonicotinamide], the IC50 on GSK3β (setting [1]) was 9.1 nM; in the assay with pTau (read-out: pTau), 770 nM; at GSK3α (setting [2]) it was 3.3 nM.

Turning to `O=C(Nc1cncc(-c2ccc(Cl)cc2Cl)c1)c1ccnc(NC(=O)C2CC2)c1` [Example 148, 2-(cyclopropanecarboxamido)-N-(5-(2,4-dichlorophenyl)pyridin-3-yl)isonicotinami], the IC50 on GSK3β (setting [1]) came to 9.7 nM; in the assay with pTau (read-out: pTau), 620 nM; at GSK3α (setting [2]), 2.4 nM.

For `CN(C)C(=O)c1ccc(-c2ccncc2NC(=O)c2ccnc(NC(=O)C3CC3)c2)c(F)c1` [Example 92, 2-(Cyclopropanecarboxamido)-N-(4-(4-(dimethylcarbamoyl)-2-fluorophenyl)pyridin-3-yl)isonicotinamide], the IC50 turned out to be 24 nM at GSK3β (setting [1]), 460 nM in the assay on pTau (read-out: pTau) and 11 nM at GSK3α (setting [2]).

Turning to `O=C(Nc1cncc(-n2ccnc2)c1)c1ccnc(NC(=O)C2CC2)c1` [Example 119, N-(5-(1H-imidazol-1-yl)pyridin-3-yl)-2-(cyclopropanecarboxamido)isonicotinamide], the IC50 at GSK3β (setting [1]) amounted to 2.4 nM; with pTau (read-out: pTau), 410 nM; at GSK3α (setting [2]), 1 nM.

For the compound `O=C(Nc1cncc(Cc2ccccc2)c1)c1ccnc(NC(=O)C2CC2)c1` [Example 110, N-(5-benzylpyridin-3-yl)-2-(cyclopropanecarboxamido)isonicotinamide], the IC50 was 73 nM on GSK3β (setting [1]), 5600 nM in the assay with pTau (read-out: pTau) and 11 nM at GSK3α (setting [2]).

Take `O=C(Nc1cncs1)c1ccnc(NC(=O)C2CC2)c1` [Example 173, 2-(cyclopropanecarboxamido)-N-(thiazol-5-yl)isonicotinamide]: the figures for the IC50 on GSK3β (setting [1]), in the assay on pTau (read-out: pTau) and on GSK3α (setting [2]) were 18 nM, 2500 nM and 14 nM, respectively.

Regarding `O=C(Nc1cnccc1N1CCCC(F)(F)C1)c1ccnc(NC(=O)C2CC2)c1` [Example 80, 2-(Cyclopropanecarboxamido)-N-(4-(3,3-difluoropiperidin-1-yl)pyridin-3-yl)isonicotinamide], the IC50 came out at 1.5 nM at GSK3β (setting [1]), 34 nM in the assay on pTau (read-out: pTau) and 0.46 nM at GSK3α (setting [2]).

For `O=C(Nc1cncc(-c2ccc(F)cc2)c1)c1ccnc(NC(=O)C2CC2)c1` [Example 111, 2-(cyclopropanecarboxamido)-N-(5-(4-fluorophenyl)pyridin-3-yl)isonicotinamide], the IC50 on GSK3β was determined as 6.4 nM; in the assay with pTau (read-out: pTau), 570 nM; on GSK3α (setting [2]), 0.95 nM.

As for `O=C(O)c1cncc(NC(=O)c2ccnc(NC(=O)C3CC3)c2)c1` [Example 103, 5-(2-(cyclopropanecarboxamido)isonicotinamido)nicotinic Acid], the IC50 is 197 nM at GSK3β (setting [1]), at least 10000 nM in the assay with pTau (read-out: pTau) and 121 nM on GSK3α (setting [2]).

As to `O=C(Nc1cnccc1C(O)C(F)(F)F)c1ccnc(NC(=O)C2CC2)c1` (stereo not drawn) [Example 23, 2-(Cyclopropanecarboxamido)-N-(4-(2,2,2-trifluoro-1-hydroxyethyl)pyridin-3-yl)isonicotinamide], the values for the IC50 on GSK3β, in the assay on pTau (read-out: pTau (nM)) and against GSK3α were 5.8 nM, 48 nM and 2.4 nM, respectively.

`COC(=O)c1cncc(NC(=O)c2ccnc(NC(=O)C3CC3)c2)c1` [Example 101, Methyl 5-(2-(cyclopropanecarboxamido)isonicotinamido)nicotinate]: the IC50 at GSK3β (setting [1]) worked out at 30 nM; with pTau (read-out: pTau) it was 3100 nM; at GSK3α (setting [2]), 13 nM.

With `O=C(Nc1cncc(-c2ccccc2F)n1)c1ccnc(NC(=O)C2CC2)c1` [Example 180, 2-(Cyclopropanecarboxamido)-N-(6-(2-fluorophenyl)pyrazin-2-yl)isonicotinamide], the values for the IC50 at GSK3β (setting [1]), with pTau (read-out: pTau) and at GSK3α (setting [2]) were 6.2 nM, 190 nM and 1.2 nM, respectively.

Regarding `O=C(Nc1cnccc1N1CCCCC1)c1ccnc(NC(=O)C2CC2)c1` [Example 50, 2-(Cyclopropanecarboxamido)-N-(4-(piperidin-1-yl)pyridin-3-yl)isonicotinamide], the IC50 at GSK3β is 0.99 nM; with pTau (read-out: pTau), 23 nM; at GSK3α (setting [2]), 0.35 nM.

For `CC(C)C(=O)Nc1cc(C(=O)Nc2cncc(-c3ccccc3F)c2)ccn1` [Example 193, N-(5-(2-fluorophenyl)pyridin-3-yl)-2-isobutyramidoisonicotinamide], the IC50 against GSK3β came out at 5.6 nM; with pTau (read-out: pTau) it was 85 nM; on GSK3α (setting [2]), 2.2 nM.

Take `O=C(Nc1cncnc1N1CCC(F)(F)CC1)c1ccnc(NC(=O)C2CC2)c1` [Example 179, 2-(Cyclopropanecarboxamido)-N-(4-(4,4-difluoropiperidin-1-yl)pyrimidin-5-yl)isonicotinamide]: the results for the IC50 at GSK3β (setting [1]), with pTau (read-out: pTau) and on GSK3α (setting [2]) were 160 nM, 3000 nM and 40 nM, respectively.

Consider `CC(C)(O)c1ccncc1NC(=O)c1ccnc(NC(=O)C2CC2)c1` [Example 16, 2-(Cyclopropanecarboxamido)-N-(4-(2-hydroxypropan-2-yl)pyridin-3-yl)isonicotinamide], for which the IC50 on GSK3β amounted to 0.11 nM; in the assay on pTau (read-out: pTau (nM)), 2.8 nM; on GSK3α it was 0.2 nM.

Consider `O=C(Nc1cnccc1-c1cncnc1)c1ccnc(NC(=O)C2CC2)c1` [Example 64, 2-(Cyclopropanecarboxamido)-N-(4-(pyrimidin-5-yl)pyridin-3-yl)isonicotinamide], for which the IC50 is 97 nM at GSK3β (setting [1]), at least 10000 nM in the assay on pTau (read-out: pTau) and 76 nM on GSK3α (setting [2]).

As for `O=C(Nc1cnccc1I)c1ccnc(NC(=O)C2CC2)c1` [Example 19, 2-(Cyclopropanecarboxamido)-N-(4-iodopyridin-3-yl)isonicotinamide], the IC50 on GSK3β (setting [1]) was determined as 1.4 nM; with pTau (read-out: pTau), 35 nM; at GSK3α (setting [2]), 0.96 nM.

Consider `O=C(Nc1cncc(-c2ccccc2)c1)c1ccnc(NC(=O)C2CC2)c1` [Example 104, 2-(cyclopropanecarboxamido)-N-(5-phenylpyridin-3-yl)isonicotinamide], for which the IC50 against GSK3β came to 5 nM; in the assay with pTau (read-out: pTau (nM)) it was 270 nM; at GSK3α, 2 nM.

`COc1ccccc1-c1cncc(NC(=O)c2ccnc(NC(=O)C3CC3)c2)c1` [Example 123, 2-(cyclopropanecarboxamido)-N-(5-(2-methoxyphenyl)pyridin-3-yl)isonicotinamide]: the IC50 was 3.7 nM against GSK3β, 200 nM in the assay on pTau (read-out: pTau (nM)) and 1.4 nM at GSK3α (setting [2]).

As for `O=C(Nc1cnccc1-c1ccc(I)cc1)c1ccnc(NC(=O)C2CC2)c1` [Example 169, 2-(cyclopropanecarboxamido)-N-(4-(4-iodophenyl)pyridin-3-yl)isonicotinamide], the IC50 amounted to 2.8 nM on GSK3β (setting [1]), 170 nM with pTau (read-out: pTau) and 1.5 nM at GSK3α (setting [2]).

`O=C(Nc1c(-c2ccccc2)ncc2ccccc12)c1ccnc(NC(=O)C2CC2)c1` [Example 63, 2-(Cyclopropanecarboxamido)-N-(3-phenylisoquinolin-4-yl)isonicotinamide]: the IC50 on GSK3β (setting [1]) was determined as 12 nM; in the assay on pTau (read-out: pTau) it was 4100 nM; on GSK3α (setting [2]), 56 nM.

Regarding `NC(=O)c1cncc(NC(=O)c2ccnc(NC(=O)C3CC3)c2)c1` [Example 105, 5-(2-(cyclopropanecarboxamido)isonicotinamido)nicotinamide], the IC50 came out at 6.5 nM at GSK3β (setting [1]), 6900 nM in the assay with pTau (read-out: pTau) and 3.6 nM on GSK3α (setting [2]).

The values are drawn from US9809573B2, “Substituted pyridine derivatives useful as GSK-3 inhibitors” (priority 2013, dated 2017).
